Laboratory results from patent US20260327191A1, “GSK3a INHIBITORS AND METHODS OF USE THEREOF” (Blueprint Medicines Corporation, priority 2023, published 2026).

Legend:
human GSK3α = biological target: T1, human GSK3α (Homo sapiens, UniProt P49840); test: In vitro enzymatic activity assay, GSK3α; format: biochemical; conditions: 1.0 mM ATP, 1.0 μM peptide substrate, 120 min, 25° C, read-out: Enzyme GSK3α (IC50)
T1 construct: Full length human GSK3α or GSK3B expressed as N-terminal GST fusion proteins; GST (N); purchased Carna Biosciences (Japan); host or cells: baculovirus host

GSK3B [1] = biological target: T2, GSK3B (Homo sapiens, UniProt P49841); test: NanoBRET cellular target engagement assay, Nanoluc-GSK3B in HEK293 cells; format: cell-based; set-up: expressed in transfected cells; conditions: NanoBRET GSK3β IC50, HEK293 cells, tracer K-8, 2 hours, 37° C
GSK3B [2] = biological target: T2, GSK3B; test: In vitro enzymatic activity assay, GSK3β; format: biochemical; set-up: Full length human GSK3α or GSK3B expressed as N-terminal GST fusion proteins; GST (N); purchased Carna Biosciences (Japan); host or cells: baculovirus host; conditions: 1.0 mM ATP, 1.0 μM peptide substrate, 120 min, 25° C, read-out: Enzyme GSK3β (IC50)
GSK3A = biological target: T3, GSK3A (Homo sapiens, UniProt P49840); test: NanoBRET cellular target engagement assay, Nanoluc-GSK3A in HEK293 cells; format: cell-based; conditions: NanoBRET GSK3α IC50, HEK293 cells, tracer K-8, 2 hours, 37° C
T3 construct: expressed in transfected cells
T3 sequence (P49840 whole entry): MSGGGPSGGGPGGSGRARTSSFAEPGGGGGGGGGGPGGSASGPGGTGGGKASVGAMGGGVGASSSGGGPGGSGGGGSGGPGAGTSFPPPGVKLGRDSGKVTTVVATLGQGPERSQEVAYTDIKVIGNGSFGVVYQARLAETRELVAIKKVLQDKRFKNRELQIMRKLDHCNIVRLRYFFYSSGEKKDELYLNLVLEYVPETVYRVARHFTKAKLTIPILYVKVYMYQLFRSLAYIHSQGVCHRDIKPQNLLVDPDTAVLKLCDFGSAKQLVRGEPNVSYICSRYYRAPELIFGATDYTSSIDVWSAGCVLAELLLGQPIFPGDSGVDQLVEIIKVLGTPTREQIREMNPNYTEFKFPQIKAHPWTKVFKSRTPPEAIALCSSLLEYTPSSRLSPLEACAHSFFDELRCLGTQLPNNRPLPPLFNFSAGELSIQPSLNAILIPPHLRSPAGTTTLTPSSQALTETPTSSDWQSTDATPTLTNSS

T2 sequence (P49841 whole entry, the tested form may be a part): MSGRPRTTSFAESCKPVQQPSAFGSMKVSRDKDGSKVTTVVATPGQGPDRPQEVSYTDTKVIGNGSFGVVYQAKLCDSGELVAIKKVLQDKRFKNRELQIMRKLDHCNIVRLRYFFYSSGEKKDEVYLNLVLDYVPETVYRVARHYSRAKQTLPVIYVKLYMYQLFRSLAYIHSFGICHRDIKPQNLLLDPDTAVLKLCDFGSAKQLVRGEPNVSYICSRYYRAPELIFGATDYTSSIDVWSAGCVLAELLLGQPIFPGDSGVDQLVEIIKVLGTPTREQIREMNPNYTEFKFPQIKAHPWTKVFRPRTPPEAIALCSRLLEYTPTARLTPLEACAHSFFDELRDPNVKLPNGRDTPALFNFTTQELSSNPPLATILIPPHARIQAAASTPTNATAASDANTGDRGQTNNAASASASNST
T1 sequence (P49840 whole entry, the tested form may be a part): as the sequence (P49840 whole entry) above

SMILES	IC50 (human GSK3α)	IC50 (GSK3B [1])	IC50 (GSK3B [2])	IC50 (GSK3A)
Cc1cc(C)c(-n2cnc(N)c(C(=O)Nc3cncc([C@H]4CCCCN4)c3)c2=O)c(C)c1 [Example 145, (R)-4-amino-1-mesityl-6-oxo-N-(5-(piperidin-2-yl)pyridin-3-yl)-1,6-dihydropyrimidine-5-carboxamide]	0.003 µM	0.0962 µM	0.129 µM	0.001 µM
CCOC[C@@H](N)c1cncc(NC(=O)c2c(N)ncn(-c3c(C)cc(COC)cc3C)c2=O)c1 (single isomer, unassigned) [Example 177, (S)-4-amino-N-(5-(1-amino-2-ethoxyethyl)pyridin-3-yl)-1-(4-(methoxymethyl)-2,6-dimethylphenyl)-6-oxo-1,6-dihydropyrimidine-5-carboxamide or (R)-4-amino-N-(5-(1-amino-2-ethoxyethyl)pyridin-3-yl)-1-(4-(methoxymethyl)-2,6-dimethylphenyl)-6-oxo-1,6-dihydropyrimidine-5-carboxamide]	0.004 µM	0.283 µM	0.2 µM	0.0028 µM
CNC(C)c1cncc(NC(=O)c2c(N)ncn(-c3c(Cl)cc(OC)cc3Cl)c2=O)c1 (single isomer, unassigned) [Example 19, (R)-4-amino-1-(2,6-dichloro-4-methoxyphenyl)-N-(5-(1-(methylamino)ethyl)pyridin-3-yl)-6-oxo-1,6-dihydropyrimidine-5-carboxamide or (S)-4-amino-1-(2,6-dichloro-4-methoxyphenyl)-N-(5-(1-(methylamino)ethyl)pyridin-3-yl)-6-oxo-1,6-dihydropyrimidine-5-carboxamide]	0.0032 µM	0.18 µM	0.232 µM	0.0035 µM
CC(C)Oc1cc(Cl)c(-n2cnc(N)c(C(=O)Nc3cncc([C@@H]4CCCCN4)c3)c2=O)c(Cl)c1 [Example 124, (S)-4-amino-1-(2,6-dichloro-4-isopropoxyphenyl)-6-oxo-N-(5-(piperidin-2-yl)pyridin-3-yl)-1,6-dihydropyrimidine-5-carboxamide]	0.007 µM	0.404 µM	0.393 µM	0.0078 µM
COC[C@@H](N)c1cncc(NC(=O)c2c(N)ncn(-c3c(Cl)cc(C#N)cc3Cl)c2=O)c1 (single isomer, unassigned) [Example 44, (S)-4-amino-N-(5-(1-amino-2-methoxyethyl)pyridin-3-yl)-1-(2,6-dichloro-4-cyanophenyl)-6-oxo-1,6-dihydropyrimidine-5-carboxamide or (R)-4-amino-N-(5-(1-amino-2-methoxyethyl)pyridin-3-yl)-1-(2,6-dichloro-4-cyanophenyl)-6-oxo-1,6-dihydropyrimidine-5-carboxamide]	0.0047 µM	0.518 µM	0.382 µM	0.0076 µM
CCOc1cc(C)c(-n2cnc(N)c(C(=O)Nc3cncc(C4CCCC(C)N4)c3)c2=O)c(C)c1 (single isomer, unassigned) [Example 96]	0.0164 µM	0.64 µM	0.706 µM	0.0067 µM
Nc1ncn(-c2c(Cl)cc(Cl)cc2Cl)c(=O)c1C(=O)Nc1cncc([C@@H]2CCCCN2)c1 [Example 48, (S)-4-amino-6-oxo-N-(5-(piperidin-2-yl)pyridin-3-yl)-1-(2,4,6-trichlorophenyl)-1,6-dihydropyrimidine-5-carboxamide]	0.0052 µM	0.298 µM	0.343 µM	0.0047 µM
COc1cc(C)c(-n2cnc(N)c(C(=O)Nc3cncc(C4CCCCCN4)c3)c2=O)c(C)c1 (single isomer, unassigned) [Example 53, (R)-4-amino-N-(5-(azepan-2-yl)pyridin-3-yl)-1-(4-methoxy-2,6-dimethylphenyl)-6-oxo-1,6-dihydropyrimidine-5-carboxamide or (S)-4-amino-N-(5-(azepan-2-yl)pyridin-3-yl)-1-(4-methoxy-2,6-dimethylphenyl)-6-oxo-1,6-dihydropyrimidine-5-carboxamide]	0.0129 µM	0.356 µM	0.625 µM	0.0068 µM
COc1cc(Cl)c(-n2cnc(N)c(C(=O)Nc3cncc(C4(N)CCC4)c3)c2=O)c(Cl)c1 [Example 179, 4-amino-N-(5-(1-aminocyclobutyl)pyridin-3-yl)-1-(2,6-dichloro-4-methoxyphenyl)-6-oxo-1,6-dihydropyrimidine-5-carboxamide]	0.0037 µM	0.179 µM	0.257 µM	0.0033 µM
COCc1cc(Cl)c(-n2cnc(N)c(C(=O)Nc3cncc(CNC(C)C)c3)c2=O)c(Cl)c1 [Example 64, 4-amino-1-(2,6-dichloro-4-(methoxymethyl)phenyl)-N-(5-((isopropylamino)methyl)pyridin-3-yl)-6-oxo-1,6-dihydropyrimidine-5-carboxamide]	0.0117 µM	0.489 µM	0.621 µM	0.0065 µM
COc1cc(Cl)c(-n2cnc(N)c(C(=O)Nc3cncc(C4(N)CC4)c3)c2=O)c(Cl)c1 [Example 181, 4-amino-N-(5-(1-aminocyclopropyl)pyridin-3-yl)-1-(2,6-dichloro-4-methoxyphenyl)-6-oxo-1,6-dihydropyrimidine-5-carboxamide]	0.0079 µM	0.491 µM	0.536 µM	0.007 µM
CCOc1cc(C)c(-n2cnc(N)c(C(=O)Nc3cccc([C@@H](C)NC)c3)c2=O)c(Cl)c1 (atropisomer, axis not shown) [Example 71, (R)-4-amino-1-((S)-2-chloro-4-ethoxy-6-methylphenyl)-N-(3-(1-(methylamino)ethyl)phenyl)-6-oxo-1,6-dihydropyrimidine-5-carboxamide]	0.0063 µM	0.353 µM	0.383 µM	0.0048 µM
CCOc1cc(Cl)c(-n2cnc(N)c(C(=O)Nc3cncc([C@@H](C)N)n3)c2=O)c(Cl)c1 (single isomer, unassigned) [Example 219, (R)-4-amino-N-(6-(1-aminoethyl)pyrazin-2-yl)-1-(2,6-dichloro-4-ethoxyphenyl)-6-oxo-1,6-dihydropyrimidine-5-carboxamide or (S)-4-amino-N-(6-(1-aminoethyl)pyrazin-2-yl)-1-(2,6-dichloro-4-ethoxyphenyl)-6-oxo-1,6-dihydropyrimidine-5-carboxamide]	0.0054 µM	0.187 µM	0.271 µM	0.0038 µM
COCc1cc(Cl)c(-n2cnc(N)c(C(=O)Nc3cncc([C@H](N)CC(F)F)c3)c2=O)c(Cl)c1 (single isomer, unassigned) [Example 70, (R)-4-amino-N-(5-(1-amino-3,3-difluoropropyl)pyridin-3-yl)-1-(2,6-dichloro-4-(methoxymethyl)phenyl)-6-oxo-1,6-dihydropyrimidine-5-carboxamide or (S)-4-amino-N-(5-(1-amino-3,3-difluoropropyl)pyridin-3-yl)-1-(2,6-dichloro-4-(methoxymethyl)phenyl)-6-oxo-1,6-dihydropyrimidine-5-carboxamide]	0.0029 µM	0.201 µM	0.145 µM	0.0024 µM
COCc1cc(C)c(-n2cnc(N)c(C(=O)Nc3cncc(C4CCCCCN4)c3)c2=O)c(C)c1 (single isomer, unassigned) [Example 100, (R)-4-amino-N-(5-(azepan-2-yl)pyridin-3-yl)-1-(4-(methoxymethyl)-2,6-dimethylphenyl)-6-oxo-1,6-dihydropyrimidine-5-carboxamide or (S)-4-amino-N-(5-(azepan-2-yl)pyridin-3-yl)-1-(4-(methoxymethyl)-2,6-dimethylphenyl)-6-oxo-1,6-dihydropyrimidine-5-carboxamide]	0.0082 µM	0.293 µM	0.348 µM	0.0039 µM
CCOc1cc(C)c(-n2cnc(N)c(C(=O)Nc3cncc(C4CCCCCN4)c3)c2=O)c(C)c1 (single isomer, unassigned) [Example 95, (R)-4-amino-N-(5-(azepan-2-yl)pyridin-3-yl)-1-(4-ethoxy-2,6-dimethylphenyl)-6-oxo-1,6-dihydropyrimidine-5-carboxamide or (S)-4-amino-N-(5-(azepan-2-yl)pyridin-3-yl)-1-(4-ethoxy-2,6-dimethylphenyl)-6-oxo-1,6-dihydropyrimidine-5-carboxamide]	0.0098 µM	0.29 µM	0.465 µM	0.0043 µM
CCOc1cc(C)c(-n2cnc(N)c(C(=O)Nc3cncc([C@H]4CCCCN4)c3)c2=O)c(C)c1 [Example 91, (R)-4-amino-1-(4-ethoxy-2,6-dimethylphenyl)-6-oxo-N-(5-(piperidin-2-yl)pyridin-3-yl)-1,6-dihydropyrimidine-5-carboxamide]	0.006 µM	0.201 µM	0.299 µM	0.0037 µM
COCc1cc(Cl)c(-n2cnc(N)c(C(=O)Nc3cncc(C4(N)CCC4)c3)c2=O)c(Cl)c1 [Example 65, 4-amino-N-(5-(1-aminocyclobutyl)pyridin-3-yl)-1-(2,6-dichloro-4-(methoxymethyl)phenyl)-6-oxo-1,6-dihydropyrimidine-5-carboxamide]	0.0051 µM	0.217 µM	0.302 µM	0.0031 µM
